Test results as given in patent publication US20120178915A1, “PYRIMIDINE DERIVATIVES AND ANALOGS, PREPARATION METHOD AND USE THEREOF” (priority 2009, published 2012).
≈ marks a conversion by molar mass, not a printed value. Where two headings read alike, the source gives them in different places.

Columns and labels:
[1] = system: Gram-positive Bacteria; type: cell-based; settings: Enterococcus faecalis (VRE), Staphylococcus aureus (MRSA), Streptococcus pneumoniae 6303 (PRSP); Bacillus cereus, Bacillus subtilis, Enterococcus faecalis, Staphylococcus aureus, Streptococcus pneumoniae, Streptococcus agalactiae B and streptococci 4
[2] = system: Bacillus cereus 2; experiment: microbe, parasite or virus in culture; type: cell-based; settings: 37° C., 24 h, read-out: Minimum Inhibitory Concentration, MIC
[3] = system: Bacillus cereus 246; experiment: microbe, parasite or virus in culture; type: cell-based; settings: 37° C., 24 h, read-out: Minimum Inhibitory Concentration, MIC
[4] = system: Bacillus subtilis 82; experiment: microbe, parasite or virus in culture; type: cell-based; settings: 37° C., 24 h, read-out: Minimum Inhibitory Concentration, MIC
[5] = system: Bacillus subtilis 168; experiment: microbe, parasite or virus in culture; type: cell-based; settings: 37° C., 24 h, read-out: Minimum Inhibitory Concentration, MIC
[6] = system: Enterococcus faecalis 29212; experiment: microbe, parasite or virus in culture; type: cell-based; settings: 37° C., 24 h, read-out: Minimum Inhibitory Concentration, MIC
[7] = system: Enterococcus faecalis 51299; experiment: microbe, parasite or virus in culture; type: cell-based; settings: Enterococcus faecalis, 51299, 24 h, read-out: Minimum Inhibitory Concentration, MIC
[8] = system: Enterococcus faecalis 19433; experiment: microbe, parasite or virus in culture; type: cell-based; settings: 37° C., 24 h, read-out: Minimum Inhibitory Concentration, MIC
[9] = system: Enterococcus faecalis F2518 (VRE); experiment: microbe, parasite or virus in culture; type: cell-based; settings: 24 h, read-out: Minimum Inhibitory Concentration, MIC
[10] = system: Enterococcus fecal F631 (VRE); experiment: organism not typed; type: cell-based; settings: 24 h, read-out: Minimum Inhibitory Concentration, MIC
[11] = system: Enterococcus faecalis 1513 (VRE); experiment: microbe, parasite or virus in culture; type: cell-based; settings: 24 h, read-out: Minimum Inhibitory Concentration, MIC
[12] = system: Enterococcus faecalis 583 (VRE); experiment: microbe, parasite or virus in culture; type: cell-based; settings: 24 h, read-out: Minimum Inhibitory Concentration, MIC
[13] = system: Staphylococcus aureus 29231; experiment: microbe, parasite or virus in culture; type: cell-based; settings: 37° C., 24 h, read-out: Minimum Inhibitory Concentration, MIC
[14] = system: Staphylococcus aureus 43300 (MRSA); experiment: microbe, parasite or virus in culture; type: cell-based; settings: 24 h, read-out: Minimum Inhibitory Concentration, MIC
[15] = system: Staphylococcus aureus 703 (MRSA); experiment: microbe, parasite or virus in culture; type: cell-based; settings: 24 h, read-out: Minimum Inhibitory Concentration, MIC
[16] = system: Staphylococcus aureus 704 (MRSA); experiment: microbe, parasite or virus in culture; type: cell-based; settings: 24 h, read-out: Minimum Inhibitory Concentration, MIC
[17] = system: Staphylococcus aureus 705 (MRSA); experiment: microbe, parasite or virus in culture; type: cell-based; settings: 24 h, read-out: Minimum Inhibitory Concentration, MIC
[18] = system: Streptococcus pneumoniae 6303 (PRSP); experiment: microbe, parasite or virus in culture; type: cell-based; settings: 24 h, read-out: Minimum Inhibitory Concentration, MIC
[19] = system: Streptococcus pneumoniae 62; experiment: microbe, parasite or virus in culture; type: cell-based; settings: 37° C., 24 h, read-out: Minimum Inhibitory Concentration, MIC
[20] = system: Streptococcus pneumoniae 6301; experiment: microbe, parasite or virus in culture; type: cell-based; settings: 37° C., 24 h, read-out: Minimum Inhibitory Concentration, MIC
[21] = system: Streptococcus pneumoniae M2; experiment: microbe, parasite or virus in culture; type: cell-based; settings: 37° C., 24 h, read-out: Minimum Inhibitory Concentration, MIC
[22] = system: Pyogenic Streptococcus; experiment: microbe, parasite or virus in culture; type: cell-based; settings: 37° C., 24 h, read-out: Minimum Inhibitory Concentration, MIC
[23] = system: Streptococcus agalactiae B; experiment: microbe, parasite or virus in culture; type: cell-based; settings: 37° C., 24 h, read-out: Minimum Inhibitory Concentration, MIC
[24] = system: green Streptococcus 1009; experiment: microbe, parasite or virus in culture; type: cell-based; settings: 37° C., 24 h, read-out: Minimum Inhibitory Concentration, MIC
[25] = system: Streptococcus bovis 10035; experiment: microbe, parasite or virus in culture; type: cell-based; settings: Streptococcus equinus, 37° C., 24 h, read-out: Minimum Inhibitory Concentration, MIC
[26] = system: Streptococcus 10342; experiment: MIC broth microdilution; type: cell-based; settings: 37° C., 24 h, read-out: Minimum Inhibitory Concentration, MIC
[27] = system: Streptococcus pneumoniae 10351; experiment: microbe, parasite or virus in culture; type: cell-based; settings: 37° C., 24 h, read-out: Minimum Inhibitory Concentration, MIC
[28] = system: Bacillus anthracis 1; experiment: microbe, parasite or virus in culture; type: cell-based; settings: Bacillus anthracis, 1, 24 h, read-out: Minimum Inhibitory Concentration, MIC
[29] = system: Corynebacterium diphtheriae; experiment: microbe, parasite or virus in culture; type: cell-based; settings: 37° C., 24 h, read-out: Minimum Inhibitory Concentration, MIC
[30] = system: Clostridium tetani; experiment: microbe, parasite or virus in culture; type: cell-based; settings: 24 h
[31] = system: Clostridium perfringens; experiment: microbe, parasite or virus in culture; type: cell-based; settings: 24 h, read-out: Minimum Inhibitory Concentration, MIC
[32] = system: Oral candidiasis; experiment: MIC broth microdilution; type: cell-based; settings: Microorganism 32, Oral candidiasis; 37° C., 24 h; read-out: Minimum Inhibitory Concentration, MIC
[33] = MIC broth microdilution; type: cell-based; settings: Microorganism 33, Dermatophytosis; 37° C., 24 h; read-out: Minimum Inhibitory Concentration, MIC
[34] = system: MRSA 2152; experiment: Antibacterial studies in vivo, survival of mice infected with MRSA 2152; settings: dose mg/kg: ciprofloxacin 20, 3: 30, 7: 40, 21: 50, 33: 25, 70: 70; for Survival rate (%) (life prolongation rate): (survival days of test group − blank group)/blank group ×100%, MRSA 2152 mice, tail vein; for Survival: mice inoculated intraperitoneally with MRSA 2152, test compound by tail vein, repeated after six hours, saline 1.3 days
[35] = read-out: Minimum Inhibitory Concentration, MIC, Microorganism 29, Clostridium tetani, 37° C.
[36] = read-out: Minimum Inhibitory Concentration, MIC, Microorganism 30, Clostridium tetani (second line of that name), 37° C.

Structure (SMILES) | inhibition of growth (conclusion from MICs) [1] | MIC [2] | MIC [3] | MIC [4] | MIC [5] | MIC [6] | MIC [7] | MIC [8] | MIC [9] | MIC [10] | MIC [11] | MIC [12] | MIC [13] | MIC [14] | MIC [15] | MIC [16] | MIC [17] | MIC [18] | MIC [19] | MIC [20] | further results
Cc1c(-c2ccc(C(F)(F)F)cc2)[nH]c2c(-c3ccc(Cl)cc3Cl)c(C3CC3)nn2c1=O [Compound 21] | significantly inhibited the growth | 0.36 µM (≈ 0.172 µg/mL) | 1.55 µM (≈ 0.741 µg/mL) | 0.68 µM (≈ 0.325 µg/mL) | 0.46 µM (≈ 0.22 µg/mL) | 0.32 µM (≈ 0.153 µg/mL) | 10.5 µM (≈ 5.02 µg/mL) | 12.3 µM (≈ 5.88 µg/mL) | 2.5 µM (≈ 1.2 µg/mL) | 0.33 µM (≈ 0.158 µg/mL) | 2.3 µM (≈ 1.1 µg/mL) | 0.11 µM (≈ 0.0526 µg/mL) | 0.6 µM (≈ 0.287 µg/mL) | 0.35 µM (≈ 0.167 µg/mL) | 0.42 µM (≈ 0.201 µg/mL) | 0.28 µM (≈ 0.134 µg/mL) | 0.3 µM (≈ 0.143 µg/mL) | 1.33 µM (≈ 0.636 µg/mL) | 0.25 µM (≈ 0.12 µg/mL) | 0.23 µM (≈ 0.11 µg/mL) | MIC [21]: 0.02 µM (≈ 0.00957 µg/mL); MIC [22]: 1.23 µM (≈ 0.588 µg/mL); MIC [23]: 0.55 µM (≈ 0.263 µg/mL); MIC [24]: 1.55 µM (≈ 0.741 µg/mL); MIC [25]: 1.25 µM (≈ 0.598 µg/mL); MIC [26]: 1.35 µM (≈ 0.646 µg/mL); MIC [27]: 1.25 µM (≈ 0.598 µg/mL); MIC [28]: 13.5 µM (≈ 6.46 µg/mL); MIC [29]: 30.3 µM (≈ 14.5 µg/mL); MIC [30, 35]: 30.2 µM (≈ 14.4 µg/mL); MIC [30, 36]: 80.3 µM (≈ 38.4 µg/mL); MIC [31]: 32 µM (≈ 15.3 µg/mL); MIC [32]: 88.5 µM (≈ 42.3 µg/mL); MIC [33]: 33.7 µM (≈ 16.1 µg/mL); Survival rate (%) (life prolongation rate) [34]: 133.2%; Survival [34]: 3.2 days
Cc1c(-c2ccc(C#N)cc2)[nH]c2c(-c3ccc(Cl)cc3Cl)c(-c3ccccc3)nn2c1=O [Compound 70] | significantly inhibited the growth | 0.31 µM (≈ 0.146 µg/mL) | 1.32 µM (≈ 0.622 µg/mL) | 1.25 µM (≈ 0.589 µg/mL) | 1.25 µM (≈ 0.589 µg/mL) | 2.5 µM (≈ 1.18 µg/mL) | 2.5 µM (≈ 1.18 µg/mL) | 0.23 µM (≈ 0.108 µg/mL) | 0.55 µM (≈ 0.259 µg/mL) | 0.55 µM (≈ 0.259 µg/mL) | 2.5 µM (≈ 1.18 µg/mL) | 1.25 µM (≈ 0.589 µg/mL) | 0.55 µM (≈ 0.259 µg/mL) | 0.56 µM (≈ 0.264 µg/mL) | 1.25 µM (≈ 0.589 µg/mL) | 0.35 µM (≈ 0.165 µg/mL) | 0.55 µM (≈ 0.259 µg/mL) | 0.04 µM (≈ 0.0189 µg/mL) | 10.5 µM (≈ 4.95 µg/mL) | 0.2 µM (≈ 0.0943 µg/mL) | MIC [21]: 0.63 µM (≈ 0.297 µg/mL); MIC [22]: 1.33 µM (≈ 0.627 µg/mL); MIC [23]: 0.25 µM (≈ 0.118 µg/mL); MIC [24]: 0.23 µM (≈ 0.108 µg/mL); MIC [25]: 0.02 µM (≈ 0.00943 µg/mL); MIC [26]: 1.23 µM (≈ 0.58 µg/mL); MIC [27]: 0.55 µM (≈ 0.259 µg/mL); MIC [28]: 12.5 µM (≈ 5.89 µg/mL); MIC [29]: 45.2 µM (≈ 21.3 µg/mL); MIC [30, 35]: 80.2 µM (≈ 37.8 µg/mL); MIC [30, 36]: 50.2 µM (≈ 23.7 µg/mL); MIC [31]: 30.6 µM (≈ 14.4 µg/mL); MIC [32]: 120 µM (≈ 56.8 µg/mL); MIC [33]: 125 µM (≈ 59.1 µg/mL); Survival rate (%) (life prolongation rate) [34]: 253.8%; Survival [34]: 4.6 days
